Converted amounts (≈) assume the structure as drawn.
Assays:
Assay type in all cases: functional
Citrobacter amalonaticus [1] = assay: Antibacterial activity against Citrobacter amalonaticus isolate Ca1614 harboring IncL/M plasmid and blaIMP-4-qacG2-aacA4-catB3 array by Etest method
Klebsiella pneumoniae [2] = assay: Antibacterial activity against Klebsiella pneumoniae isolate Kp7564 harboring IncL/M plasmid and blaIMP-4-qacG2-aacA4-catB3 array by Etest method
Klebsiella oxytoca [3] = assay: Antibacterial activity against Klebsiella oxytoca isolate Ko238 harboring IncA/C plasmid and blaIMP-4-qacG2-aacA4-catB3 array by Etest method
Klebsiella pneumoniae [4] = assay: Antibacterial activity against Klebsiella pneumoniae Kp1239 transconjugant harboring IncL/M plasmid and blaIMP-4-qacG2-aacA4-catB3 array by Etest method
Citrobacter youngae [5] = assay: Antibacterial activity against Citrobacter youngae isolate CyB38 harboring blaIMP-4-qacG2-aacA4-catB3 array by Etest method
Enterobacter cloacae [6] = assay: Antibacterial activity against Enterobacter cloacae isolate El1573 harboring IncL/M plasmid and blaIMP-4-qacG2-aacA4-catB3 array by Etest method
Morganella morganii [7] = assay: Antibacterial activity against Morganella morganii isolate Mm1229 harboring IncL/M plasmid and blaIMP-4-qacG2-aacA4-catB3 array by Etest method
Klebsiella oxytoca [8] = assay: Antibacterial activity against Klebsiella oxytoca isolate Ko1156 harboring IncL/M plasmid and blaIMP-4-qacG2-aacA4-catB3 array by Etest method
Klebsiella oxytoca [9] = assay: Antibacterial activity against Klebsiella oxytoca Ko0426 transconjugant harboring IncL/M plasmid and blaIMP-4-qacG2-aacA4-catB3 array by Etest method
Serratia marcescens [10] = assay: Antibacterial activity against Serratia marcescens isolate Sm2723 harboring IncL/M plasmid and blaIMP-4-qacG2-aacA4-catB3 array by Etest method
Enterobacter cloacae [11] = assay: Antibacterial activity against Enterobacter cloacae isolate El3799 harboring IncL/M plasmid and blaIMP-4-qacG2-aacA4-catB3 array by Etest method
Citrobacter amalonaticus [12] = assay: Antibacterial activity against Citrobacter amalonaticus Ca3927 transconjugant harboring IncL/M plasmid and blaIMP-4-qacG2-aacA4-catB3 array by Etest method
Enterobacter cloacae [13] = assay: Antibacterial activity against Enterobacter cloacae isolate El3280 harboring IncL/M plasmid and blaIMP-4-qacG2-aacA4-catB3 array by Etest method
Klebsiella pneumoniae [14] = assay: Antibacterial activity against Klebsiella pneumoniae isolate Kp149 harboring IncA/C plasmid and blaIMP-4-qacG2-aacA4-catB3 array by Etest method
Serratia marcescens [15] = assay: Antibacterial activity against Serratia marcescens Sm265 transconjugant harboring IncA/C plasmid and blaIMP-4-qacG2-aacA4-catB3 array by Etest method
Citrobacter amalonaticus [16] = assay: Antibacterial activity against Citrobacter amalonaticus isolate Ca38009 harboring IncL/M plasmid and blaIMP-4-qacG2-aacA4-catB3 array by Etest method
Escherichia coli [17] = assay: Antibacterial activity against Escherichia coli Ec158 transconjugant harboring IncA/C plasmid and blaIMP-4-qacG2-aacA4-catB3 array by Etest method
Citrobacter koseri = assay: Antibacterial activity against Citrobacter koseri isolate Ck211 harboring IncA/C plasmid and blaIMP-4-qacG2-aacA4-catB3 array by Etest method
Klebsiella pneumoniae [18] = assay: Antibacterial activity against Klebsiella pneumoniae isolate Kp38009 harboring IncL/M plasmid and blaIMP-4-qacG2-aacA4-catB3 array by Etest method
Klebsiella oxytoca [19] = assay: Antibacterial activity against Klebsiella oxytoca Ko238 transconjugant harboring IncA/C plasmid and blaIMP-4-qacG2-aacA4-catB3 array by Etest method
Serratia marcescens [20] = assay: Antibacterial activity against Serratia marcescens isolate Sm211 harboring IncA/C plasmid and blaIMP-4-qacG2-aacA4-catB3 array by Etest method
Klebsiella pneumoniae [21] = assay: Antibacterial activity against Klebsiella pneumoniae Kp7564 transconjugant harboring IncL/M plasmid and blaIMP-4-qacG2-aacA4-catB3 array by Etest method
Escherichia coli [22] = assay: Antibacterial activity against Escherichia coli Ec221 transconjugant harboring IncA/C plasmid and blaIMP-4-qacG2-aacA4-catB3 array by Etest method
Citrobacter amalonaticus [23] = assay: Antibacterial activity against Citrobacter amalonaticus Ca38009 transconjugant harboring IncL/M plasmid and blaIMP-4-qacG2-aacA4-catB3 array by Etest method
Enterobacter cloacae [24] = assay: Antibacterial activity against Enterobacter cloacae isolate El3518 harboring IncL/M plasmid and blaIMP-4-qacG2-aacA4-catB3 array by Etest method
Serratia marcescens [25] = assay: Antibacterial activity against Serratia marcescens isolate Sm203 harboring IncA/C plasmid and blaIMP-4-qacG2-aacA4-catB3 array by Etest method
Escherichia coli [26] = assay: Antibacterial activity against Escherichia coli isolate Ec158 harboring IncA/C plasmid and blaIMP-4-qacG2-aacA4-catB3 array by Etest method
Klebsiella pneumoniae [27] = assay: Antibacterial activity against Klebsiella pneumoniae Kp2730 transconjugant harboring IncL/M plasmid and blaIMP-4-qacG2-aacA4-catB3 and dfrA12-orfF-aadA2 arrays by Etest method
Klebsiella pneumoniae [28] = assay: Antibacterial activity against Klebsiella pneumoniae isolate Kp2730 harboring IncL/M plasmid and blaIMP-4-qacG2-aacA4-catB3 and dfrA12-orfF-aadA2 arrays by Etest method
Klebsiella oxytoca [29] = assay: Antibacterial activity against Klebsiella oxytoca isolate Ko0426 harboring IncL/M plasmid and blaIMP-4-qacG2-aacA4-catB3 array by Etest method
Serratia marcescens [30] = assay: Antibacterial activity against Serratia marcescens isolate Sm201 harboring IncA/C plasmid and blaIMP-4-qacG2-aacA4-catB3 array by Etest method
Klebsiella pneumoniae [31] = assay: Antibacterial activity against Klebsiella pneumoniae isolate Kp3799 harboring IncL/M plasmid and blaIMP-4-qacG2-aacA4-catB3 array by Etest method
Serratia marcescens [32] = assay: Antibacterial activity against Serratia marcescens Sm2723 transconjugant harboring IncL/M plasmid and blaIMP-4-qacG2-aacA4-catB3 array by Etest method
Citrobacter youngae [33] = assay: Antibacterial activity against Citrobacter youngae CyB38 transconjugant harboring blaIMP-4-qacG2-aacA4-catB3 array by Etest method
Klebsiella pneumoniae [34] = assay: Antibacterial activity against Klebsiella pneumoniae isolate Kp266 harboring IncA/C plasmid and blaIMP-4-qacG2-aacA4-catB3 array by Etest method
Escherichia coli [35] = assay: Antibacterial activity against Escherichia coli isolate Ec221 harboring IncA/C plasmid and blaIMP-4-qacG2-aacA4-catB3 array by Etest method
Klebsiella pneumoniae [36] = assay: Antibacterial activity against Klebsiella pneumoniae Kp38045 transconjugant harboring IncL/M plasmid and blaIMP-4-qacG2-aacA4-catB3 array by Etest method
Klebsiella pneumoniae [37] = assay: Antibacterial activity against Klebsiella pneumoniae Kp38009 transconjugant harboring IncL/M plasmid and blaIMP-4-qacG2-aacA4-catB3 array by Etest method
Morganella morganii [38] = assay: Antibacterial activity against Morganella morganii isolate Mm38009 harboring IncL/M plasmid and blaIMP-4-qacG2-aacA4-catB3 array by Etest method
Escherichia coli [39] = assay: Antibacterial activity against Escherichia coli isolate Ec211 harboring IncA/C plasmid and blaIMP-4-qacG2-aacA4-catB3 array by Etest method
Klebsiella pneumoniae [40] = assay: Antibacterial activity against Klebsiella pneumoniae isolate Kp211 harboring IncA/C plasmid and blaIMP-4-qacG2-aacA4-catB3 array by Etest method
Citrobacter freundii = assay: Antibacterial activity against Citrobacter freundii isolate Cf1614 harboring IncL/M plasmid and blaIMP-4-qacG2-aacA4-catB3 array by Etest method

CO/N=C(\C(=O)N[C@@H]1C(=O)N2C(C(=O)O)=C(COC(C)=O)CS[C@H]12)c1csc(N)n1 [CEFOTAXIME]
MIC (Citrobacter amalonaticus [1]): > 32 µg/mL | MIC (Klebsiella pneumoniae [2]): 32 µg/mL (≈ 70.3 µM) | MIC (Klebsiella oxytoca [3]): > 32 µg/mL | MIC (Klebsiella pneumoniae [4]): 32 µg/mL (≈ 70.3 µM) | MIC (Citrobacter youngae [5]): > 32 µg/mL | MIC (Enterobacter cloacae [6]): > 32 µg/mL | MIC (Morganella morganii [7]): > 32 µg/mL | MIC (Klebsiella oxytoca [8]): 32 µg/mL (≈ 70.3 µM) | MIC (Klebsiella oxytoca [9]): 32 µg/mL (≈ 70.3 µM) | MIC (Serratia marcescens [10]): > 32 µg/mL | MIC (Enterobacter cloacae [11]): > 32 µg/mL | MIC (Citrobacter amalonaticus [12]): 32 µg/mL (≈ 70.3 µM) | MIC (Enterobacter cloacae [13]): > 32 µg/mL | MIC (Klebsiella pneumoniae [14]): > 32 µg/mL | MIC (Serratia marcescens [15]): > 32 µg/mL | MIC (Citrobacter amalonaticus [16]): > 32 µg/mL | MIC (Escherichia coli [17]): > 32 µg/mL | MIC (Citrobacter koseri): > 32 µg/mL | MIC (Klebsiella pneumoniae [18]): > 32 µg/mL | MIC (Klebsiella oxytoca [19]): 32 µg/mL (≈ 70.3 µM) | MIC (Serratia marcescens [20]): > 32 µg/mL | MIC (Klebsiella pneumoniae [21]): 32 µg/mL (≈ 70.3 µM) | MIC (Escherichia coli [22]): 32 µg/mL (≈ 70.3 µM) | MIC (Citrobacter amalonaticus [23]): 16 µg/mL (≈ 35.1 µM) | MIC (Enterobacter cloacae [24]): > 32 µg/mL | MIC (Serratia marcescens [25]): > 32 µg/mL | MIC (Escherichia coli [26]): > 32 µg/mL | MIC (Klebsiella pneumoniae [27]): 32 µg/mL (≈ 70.3 µM) | MIC (Klebsiella pneumoniae [28]): > 32 µg/mL | MIC (Klebsiella oxytoca [29]): 32 µg/mL (≈ 70.3 µM) | MIC (Serratia marcescens [30]): > 32 µg/mL | MIC (Klebsiella pneumoniae [31]): > 32 µg/mL | MIC (Serratia marcescens [32]): 16 µg/mL (≈ 35.1 µM) | MIC (Citrobacter youngae [33]): > 32 µg/mL | MIC (Klebsiella pneumoniae [34]): > 32 µg/mL | MIC (Escherichia coli [35]): > 32 µg/mL | MIC (Klebsiella pneumoniae [36]): 32 µg/mL (≈ 70.3 µM) | MIC (Klebsiella pneumoniae [37]): 32 µg/mL (≈ 70.3 µM) | MIC (Morganella morganii [38]): 32 µg/mL (≈ 70.3 µM) | MIC (Escherichia coli [39]): > 32 µg/mL | MIC (Klebsiella pneumoniae [40]): > 32 µg/mL | MIC (Citrobacter freundii): > 32 µg/mL

NC[C@H]1O[C@H](O[C@H]2[C@H](O)[C@@H](O[C@H]3O[C@H](CO)[C@@H](O)[C@H](N)[C@H]3O)[C@H](N)C[C@@H]2N)[C@H](N)C[C@@H]1O [TOBRAMYCIN]
MIC (Citrobacter amalonaticus [1]): > 8 µg/mL | MIC (Klebsiella pneumoniae [2]): 8 µg/mL (≈ 17.1 µM) | MIC (Klebsiella oxytoca [3]): 8 µg/mL (≈ 17.1 µM) | MIC (Klebsiella pneumoniae [4]): 8 µg/mL (≈ 17.1 µM) | MIC (Citrobacter youngae [5]): > 8 µg/mL | MIC (Enterobacter cloacae [6]): > 8 µg/mL | MIC (Morganella morganii [7]): > 8 µg/mL | MIC (Klebsiella oxytoca [8]): > 8 µg/mL | MIC (Klebsiella oxytoca [9]): 8 µg/mL (≈ 17.1 µM) | MIC (Serratia marcescens [10]): > 8 µg/mL | MIC (Enterobacter cloacae [11]): > 8 µg/mL | MIC (Citrobacter amalonaticus [12]): 8 µg/mL (≈ 17.1 µM) | MIC (Enterobacter cloacae [13]): > 8 µg/mL | MIC (Klebsiella pneumoniae [14]): > 8 µg/mL | MIC (Serratia marcescens [15]): 8 µg/mL (≈ 17.1 µM) | MIC (Citrobacter amalonaticus [16]): > 8 µg/mL | MIC (Escherichia coli [17]): 8 µg/mL (≈ 17.1 µM) | MIC (Citrobacter koseri): 8 µg/mL (≈ 17.1 µM) | MIC (Klebsiella pneumoniae [18]): 8 µg/mL (≈ 17.1 µM) | MIC (Klebsiella oxytoca [19]): 8 µg/mL (≈ 17.1 µM) | MIC (Serratia marcescens [20]): > 8 µg/mL | MIC (Klebsiella pneumoniae [21]): 8 µg/mL (≈ 17.1 µM) | MIC (Escherichia coli [22]): 8 µg/mL (≈ 17.1 µM) | MIC (Citrobacter amalonaticus [23]): 8 µg/mL (≈ 17.1 µM) | MIC (Enterobacter cloacae [24]): > 8 µg/mL | MIC (Serratia marcescens [25]): > 8 µg/mL | MIC (Escherichia coli [26]): 8 µg/mL (≈ 17.1 µM) | MIC (Klebsiella pneumoniae [27]): 8 µg/mL (≈ 17.1 µM) | MIC (Klebsiella pneumoniae [28]): > 8 µg/mL | MIC (Klebsiella oxytoca [29]): > 8 µg/mL | MIC (Serratia marcescens [30]): > 8 µg/mL | MIC (Klebsiella pneumoniae [31]): > 8 µg/mL | MIC (Serratia marcescens [32]): 8 µg/mL (≈ 17.1 µM) | MIC (Citrobacter youngae [33]): 8 µg/mL (≈ 17.1 µM) | MIC (Klebsiella pneumoniae [34]): > 8 µg/mL | MIC (Escherichia coli [35]): 8 µg/mL (≈ 17.1 µM) | MIC (Klebsiella pneumoniae [36]): 8 µg/mL (≈ 17.1 µM) | MIC (Klebsiella pneumoniae [37]): 8 µg/mL (≈ 17.1 µM) | MIC (Morganella morganii [38]): 4 µg/mL (≈ 8.56 µM) | MIC (Escherichia coli [39]): > 8 µg/mL | MIC (Klebsiella pneumoniae [40]): 8 µg/mL (≈ 17.1 µM) | MIC (Citrobacter freundii): > 8 µg/mL
